Format in all cases: cell-based
One assay addresses human S1P5 receptor (Homo sapiens (Human), UniProt Q9H228). Put plainly: In vitro functional activity (agonism) on human S1P5 receptors, CHO-human-S1P5-Aequorin assay. The settings on record: aequorin luminescence, CHO cells, 3 independent experiments. The text has this: In Vitro Functional Activity (Agonism) on Human S1P5 Receptors
(§1) The CHO-human-S1P5-Aeqorin assay was bought from Euroscreen, Brussels (Euroscreen, Technical dossier, Human Lysophospholid S1P5 (Edg8) receptor, DNA clone and CHO AequoScreen™ recombinant cell-line, catalog no: ES-593-A, September 2006). Human-S1P5-Aequorin cells express mitochondrial targeted apo-Aequorin. Cells have to be loaded with coelanterazine, in order to reconstitute active Aequorin. After binding of agonists to the human S1P5 receptor the intracellular calcium concentration increases and binding of calcium to the apo-Aequorin/coelenterazine complex leads to an oxidation reaction of coelenterazine, which results in the production of apo-Aequorin, coelenteramide, CO2 and light ([…]max 469 nm). This luminescent response is dependent on the agonist concentration. Luminescence is measured using the MicroBeta Jet (Perkin Elmer). Agonistic effects of compounds are expressed as pEC50. Compounds were tested at a 10 points half log concentration range, and 3 independent experiments were performed in single point's measurements.

The next assay has as its target human S1P3 receptor (Homo sapiens (Human), UniProt Q99500). Put plainly: In vitro functional activity (agonism) on human S1P3 receptors, CHO-human-S1P3-Aequorin assay. The settings on record: aequorin luminescence, CHO K1 cells, 3 independent experiments, read-out: S1P3 pEC50 (converted).
Source text: In Vitro Functional Activity (Agonism) on Human S1P3 Receptors
The CHO-human-S1P3-Aeqorin assay (CHO/Gα16/AEQ/h-S1P3) was established at Solvay Pharmaceuticals. The plasmid DNA coding for the S1P3 receptor (accession number in GenBank NM_005226 was purchased from UMR cDNA resource Centre (Rolla, Mo.). The pcDNA3.1/hS1P3 construct carrying the mitochondrially targeted apo-Aeqorin and Gal6 protein was transfected in CHO K1 cell-line.
as §1, with “Human-S1P3-Aequorin” for “The CHO-human-S1P5-Aeqorin assay was bought from Euroscreen, Brussels (Euroscreen, Technical dossier, Human Lysophospholid S1P5 (Edg8) receptor, DNA clone and CHO AequoScreen™ recombinant cell-line, catalog no: ES-593-A, September 2006). Human-S1P5-Aequorin”, “S1P3” for “S1P5”

The target of another assay is human S1P1 (Homo sapiens (Human), UniProt P21453). Kind of assay: In vitro functional activity (agonism) on human S1P1 receptors (method B), CHO-K1-human S1P1-cAMP assay. The settings on record: agonism, determined using method B (cAMP HTRF with Forskolin, CHO-K1 cells); read-out: S1P1^B pEC50 (converted). On the procedure:
In Vitro Functional Activity (Agonism) on Human S1P1 Receptors (Method B)
Recombinant CHO-K1 cells expressing human S1P1, grown to mid-log Phase in culture media without antibiotics, detached, centrifuged and re-suspended. For agonist testing cells are mixed with compound and Forskolin and incubated at room temperature. Cells are lyses and cAMP concentration are estimated, according to the manufacturer specification, With the HTRF kit from CIS-BIO International (cat no 62AM2PEB).
Compounds were tested at a 10 points half log concentration range duplicated in 1 experiment.

Each structure is given as a SMILES string. Counter-ions that a name gives are not always drawn.

Chain of human S1P3 receptor (Q99500 whole entry): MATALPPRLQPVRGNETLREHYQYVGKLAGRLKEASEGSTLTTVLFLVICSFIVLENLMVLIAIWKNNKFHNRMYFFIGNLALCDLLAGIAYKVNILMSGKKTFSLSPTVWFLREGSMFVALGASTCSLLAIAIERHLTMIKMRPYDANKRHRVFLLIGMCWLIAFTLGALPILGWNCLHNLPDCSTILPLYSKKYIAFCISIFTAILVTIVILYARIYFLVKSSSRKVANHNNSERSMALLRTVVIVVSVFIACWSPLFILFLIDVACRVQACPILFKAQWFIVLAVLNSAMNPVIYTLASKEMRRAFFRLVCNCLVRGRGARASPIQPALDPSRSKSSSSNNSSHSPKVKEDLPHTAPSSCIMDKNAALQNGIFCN
Chain of human S1P5 receptor (Q9H228 whole entry): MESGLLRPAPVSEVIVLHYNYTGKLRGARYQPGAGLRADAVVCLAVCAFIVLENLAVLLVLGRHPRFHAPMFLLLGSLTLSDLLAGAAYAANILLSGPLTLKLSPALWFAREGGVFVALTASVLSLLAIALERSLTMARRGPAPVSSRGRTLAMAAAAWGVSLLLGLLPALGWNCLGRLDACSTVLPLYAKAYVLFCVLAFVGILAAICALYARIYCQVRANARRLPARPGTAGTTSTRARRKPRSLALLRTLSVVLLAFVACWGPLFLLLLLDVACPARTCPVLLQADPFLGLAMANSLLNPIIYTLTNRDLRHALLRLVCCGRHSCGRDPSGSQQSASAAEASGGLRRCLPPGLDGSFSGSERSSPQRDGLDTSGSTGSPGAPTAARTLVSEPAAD
Chain of human S1P1 (P21453 whole entry): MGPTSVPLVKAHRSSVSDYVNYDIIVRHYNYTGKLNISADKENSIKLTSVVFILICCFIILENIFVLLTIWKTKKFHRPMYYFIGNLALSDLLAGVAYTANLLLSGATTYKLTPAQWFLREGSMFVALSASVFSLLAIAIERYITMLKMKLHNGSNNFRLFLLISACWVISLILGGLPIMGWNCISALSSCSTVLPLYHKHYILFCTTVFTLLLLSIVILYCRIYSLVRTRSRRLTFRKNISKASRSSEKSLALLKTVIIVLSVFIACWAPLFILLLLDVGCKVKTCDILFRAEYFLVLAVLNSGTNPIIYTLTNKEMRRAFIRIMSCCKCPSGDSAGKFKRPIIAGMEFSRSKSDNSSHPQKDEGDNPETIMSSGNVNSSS

Consider `Cc1c(OCc2c(Cl)cccc2Cl)ccc2c1OCC21CCN(CCC(=O)O)CC1` [Compound 129, 3-{6-[(2,6-Dichlorophenyl)methoxy]-7-methyl-2H-spiro[1-benzofuran-3,4′-piperidine]-1′-yl}propanoic acid hydrochloride], for which the “S1P5 pEC50” value at human S1P5 receptor is reported as 7.5. For the same compound, the EC50 on human S1P3 receptor is above 10 µM; at human S1P1 it was above 3.16 µM.

As for `O=C(O)CCN1CCC2(CC1)COc1cc(/C=C/c3ccccc3F)ccc12` [Compound 171, 3-{6-[(E)-2-(2-Fluorophenyl)ethenyl]-2H-spiro[1-benzofuran-3,4′-piperidine]-1′-yl}propanoic acid hydrochloride], the “S1P5 pEC50” value on human S1P5 receptor amounted to 6.5. The EC50 was above 10 µM on human S1P3 receptor and above 3.16 µM at human S1P1.

The record behind these values is patent US10179791B2, “Spiro-cyclic amine derivatives as S1P modulators” (AbbVie B.V., priority 2010, dated 2019).
